Earlier results, collected in US12427123B2, “Phenylephrine hydrochloride compositions and containers” (Endo Operations Limited, priority 2020, dated 2025).
Read-outs that look alike come from different tables or passages of the source.

Experiments:
[1] = not given; remark: listed apart in the source

SMILES	dose excreted unchanged in the urine (in vivo) [%]	α-phase half-life (intravenous administration, 2-compartment model, distribution from central compartment) [min]	optical stability (racemization as a function of pH) ([1]; solutions at pH 3.0 and pH 6.0)	solubility ([1]; chloroform)	solubility ([1]; ethanol)	solubility ([1]; ethyl ether)	solubility ([1]; water)
CNC[C@H](O)c1cccc(O)c1 [phenylephrine]	12	< 5	optically stable	–	–	–	–
CNC[C@H](O)c1cccc(O)c1.Cl [Phenylephrine hydrochloride]	–	–	–	insoluble	freely soluble	insoluble	very soluble
